Source: patent publication EP0056114A1, “Pyridylamino benzoic acids, their preparation and use” (C.H. BOEHRINGER SOHN, priority 1981, dated 1982)

Tested on: Ratte
Assay: PCA test in the rat, oral administration
Format: in vivo
Conditions: factor by which the ED50 is lower than that of Verbindung A (no absolute ED50 printed)

CC(C)c1ccc(Nc2ccc(C(=O)O)cc2C(=O)O)nc1
Fold lower ED50 than compound A (rat PCA test, oral): ca. 100 mal
